Experimental data published in PubChem BioAssay AID272 (DTP/NCI, 2004).
Records with an inconclusive call do not appear. Residues, ends and D or L forms follow the SMILES beside them. *: point of attachment. Trt = c1ccc(C(c2ccccc2)(c2ccccc2)*)cc1; Bn = c1ccc(C*)cc1

System: Lewis lung carcinoma i.m., BDF1 mice, T/C %
Assay: NCI In Vivo Anticancer Drug Screen. Data for tumor model Lewis Lung Carcinoma (intramuscular) in B6D2F1 (BDF1) mice
Procedure, shortened: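 Compound given to mice with transplantable tumours; survival or tumour size compared against the vehicle control group, reported as T divided by C.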

[1] = endpoint: median survival time, dose: 6.25 mg/kg/injection, schedule: Q01DX011 (ip), vehicle: saline with Tween-80, higher = longer survival
[2] = endpoint: median survival time, dose: 12.5 mg/kg/injection, schedule: Q01DX011 (ip), vehicle: saline with Tween-80, higher = longer survival
[3] = endpoint: median survival time, dose: 25.0 mg/kg/injection, schedule: Q01DX011 (ip), vehicle: saline with Tween-80, higher = longer survival
[4] = endpoint: median survival time, dose: 50.0 mg/kg/injection, schedule: Q01DX011 (ip), vehicle: saline with Tween-80, higher = longer survival

For `Nc1cc(I)c2cccnc2c1O`, the T/C (endpoint: mean tumor weight (est.), dose: 6.25 mg/kg/injection, schedule: Q01DX011 (ip), vehicle: saline with Tween-80, higher = larger tumour) was 87 % of control, the T/C (endpoint: mean tumor weight (est.), dose: 12.5 mg/kg/injection, schedule: Q01DX011 (ip), vehicle: saline with Tween-80, higher = larger tumour) was 97 % of control and the T/C (endpoint: mean tumor weight (est.), dose: 25.0 mg/kg/injection, schedule: Q01DX011 (ip), vehicle: saline with Tween-80, higher = larger tumour) was 87 % of control. The T/C [1] was 114 % of control, the T/C [2] was 108 % of control and the T/C [3] was 104 % of control.

`CCCCc1ccc(NC(=O)N(CCCl)N=O)cc1` was tested, and the T/C (endpoint: median survival time, dose: 3.0 mg/kg/injection, schedule: Q07DX003 (ip), vehicle: Klucel (hydroxypropylcellulose) (HPC), higher = longer survival) was 112 % of control, the T/C (endpoint: median survival time, dose: 5.0 mg/kg/injection, schedule: Q07DX003 (ip), vehicle: Klucel (hydroxypropylcellulose) (HPC), higher = longer survival) was 106 % of control and the T/C (endpoint: median survival time, dose: 14.0 mg/kg/injection, schedule: Q07DX003 (ip), vehicle: Klucel (hydroxypropylcellulose) (HPC), higher = longer survival) was 110 % of control. The T/C (endpoint: median survival time, dose: 23.0 mg/kg/injection, schedule: Q07DX003 (ip), vehicle: Klucel (hydroxypropylcellulose) (HPC), higher = longer survival) was 87 % of control.

In the case of `Nc1cc(S(N)(=O)=O)ccc1SSc1ccc(S(N)(=O)=O)cc1N`, the T/C (endpoint: mean tumor weight (est.), dose: 62.5 mg/kg/injection, schedule: Q01DX011 (ip), vehicle: saline with Tween-80, higher = larger tumour) is reported as 65 % of control, the T/C (endpoint: mean tumor weight (est.), dose: 125.0 mg/kg/injection, schedule: Q01DX011 (ip), vehicle: saline with Tween-80, higher = larger tumour) is reported as 24 % of control and the T/C (endpoint: median survival time, dose: 62.5 mg/kg/injection, schedule: Q01DX011 (ip), vehicle: saline with Tween-80, higher = longer survival) is reported as 103 % of control. The T/C (endpoint: median survival time, dose: 125.0 mg/kg/injection, schedule: Q01DX011 (ip), vehicle: saline with Tween-80, higher = longer survival) was 98 % of control.

In the case of `COC(=O)C(CSC(c1ccccc1)(c1ccccc1)c1ccccc1)NC(=O)C(CSCc1ccccc1)NC(C)=O` (configuration not stated) (Ac-Cys(Bn)-Cys(Trt)-OMe; configuration not given here), the T/C (endpoint: median survival time, dose: 8.0 mg/kg/injection, schedule: Q01DX009 (ip), vehicle: Klucel (hydroxypropylcellulose) (HPC), higher = longer survival) is reported as 165 % of control, the T/C (endpoint: median survival time, dose: 32.0 mg/kg/injection, schedule: Q01DX009 (ip), vehicle: Klucel (hydroxypropylcellulose) (HPC), higher = longer survival) is reported as 121 % of control and the T/C (endpoint: median survival time, dose: 64.0 mg/kg/injection, schedule: Q01DX009 (ip), vehicle: Klucel (hydroxypropylcellulose) (HPC), higher = longer survival) is reported as 121 % of control.

In the case of `C[C@]12CC[C@H]3[C@@H](CC[C@]4(O)C[C@@H](O)CC[C@]34C=O)[C@@]1(O)CC[C@@H]2C1=CC(=O)OC1`, the T/C [2] is reported as 106 % of control and the T/C [4] is reported as 115 % of control.

In the case of `C=CCNC(=O)NCC=C`, the T/C (endpoint: mean tumor weight, dose: 6.25 mg/kg/injection, schedule: Q01DX011 (ip), vehicle: saline with Tween-80, higher = larger tumour) is reported as 74 % of control, the T/C (endpoint: mean tumor weight, dose: 12.5 mg/kg/injection, schedule: Q01DX011 (ip), vehicle: saline with Tween-80, higher = larger tumour) is reported as 69 % of control and the T/C (endpoint: mean tumor weight, dose: 25.0 mg/kg/injection, schedule: Q01DX011 (ip), vehicle: saline with Tween-80, higher = larger tumour) is reported as 73 % of control. The T/C (endpoint: mean tumor weight, dose: 50.0 mg/kg/injection, schedule: Q01DX011 (ip), vehicle: saline with Tween-80, higher = larger tumour) was 76 % of control, the T/C (endpoint: mean tumor weight, dose: 100.0 mg/kg/injection, schedule: Q01DX011 (ip), vehicle: saline with Tween-80, higher = larger tumour) was 80 % of control and the T/C [1] was 113 % of control. The T/C [2] was 108 % of control, the T/C [3] was 113 % of control and the T/C [4] was 86 % of control. For the same compound, the T/C (endpoint: median survival time, dose: 100.0 mg/kg/injection, schedule: Q01DX011 (ip), vehicle: saline with Tween-80, higher = longer survival) was 100 % of control.

In the case of `Cc1cc(C)c(C(=O)CC(=O)c2cccnc2)c(C)c1`, the T/C (endpoint: mean tumor weight (est.), dose: 8.75 mg/kg/injection, schedule: Q01DX011 (ip), vehicle: other, higher = larger tumour) is reported as 69 % of control, the T/C (endpoint: mean tumor weight (est.), dose: 17.5 mg/kg/injection, schedule: Q01DX011 (ip), vehicle: other, higher = larger tumour) is reported as 70 % of control and the T/C (endpoint: mean tumor weight (est.), dose: 35.0 mg/kg/injection, schedule: Q01DX011 (ip), vehicle: other, higher = larger tumour) is reported as 93 % of control. For the same compound, the T/C (endpoint: mean tumor weight (est.), dose: 70.0 mg/kg/injection, schedule: Q01DX011 (ip), vehicle: other, higher = larger tumour) was 83 % of control, the T/C (endpoint: median survival time, dose: 8.75 mg/kg/injection, schedule: Q01DX011 (ip), vehicle: other, higher = longer survival) was 92 % of control and the T/C (endpoint: median survival time, dose: 17.5 mg/kg/injection, schedule: Q01DX011 (ip), vehicle: other, higher = longer survival) was 106 % of control. The T/C (endpoint: median survival time, dose: 35.0 mg/kg/injection, schedule: Q01DX011 (ip), vehicle: other, higher = longer survival) was 106 % of control and the T/C (endpoint: median survival time, dose: 70.0 mg/kg/injection, schedule: Q01DX011 (ip), vehicle: other, higher = longer survival) was 94 % of control.
